From patent US20230390250A1, “MODULATION OF GLUCAGON-LIKE PEPTIDE 1 AND USES THEREOF” (priority 2020, published 2023)
Entries after “also recorded” stand apart in the source; their conditions may differ. Where two headings read alike, the source gives them in different places.

Assays:
GLP-1 = assay: Circulating GLP-1 in mice injected with LPA, with or without LPAR antagonist pre-treatment; format: in vivo; settings: for rescue of the fall in blood GLP-1 levels caused by LPA: antagonist 30 mg/kg by gavage 10 min before 50 mg/kg 18:1-LPA i.p., serum at 30 min (Examples 6, 8); for blood GLP-1 with antagonist alone versus vehicles: antagonist 30 mg/kg by gavage, no LPA; for decrease in plasma GLP-1 levels after LPA injection / effect of LPA on circulating GLP-1 levels (words): 50 mg/kg i.p.; for decrease in plasma GLP-1 levels after LPA injection: 30 minutes later, n=3 (Example 3, FIG. 4); for effect of LPA on circulating GLP-1 levels (words): mice
Experimental: We injected mice i.p. with vehicle (10% DMSO in isotonic saline) or 50 mg/kg of 1-oleoyl-2-hydroxy-LPA. Half of the mice injected with LPA were pre-injected with 5 mg/kg Ki-16425 10 minutes prior to receiving LPA. Thirty minutes later, samples of blood were taken by cardiac puncture, and circulating active GLP-1 levels in plasma were analysed by enzyme linked immunosorbent assay.
(§1) The experimental protocol was as follows: • 1. Mice were administered an LPAR antagonist drug, either by oral gavage (for BMS986020, SARI 00842, AM966, AM095, or H2L51863030), or by i.p. injection (for Ki-16425, and LPA2-antagonistl) at the doses indicated in the table below. • 2. Control mice were administered only the vehicle (a 10% DMSO solution) given via the same route as the comparison drug was administered. • 3. Ten minutes later, mice were injected i.p. either with isotonic saline, or with 50 mg/kg LPA. • 4. Thirty minutes later, mice were euthanized by cervical dyslocation, and blood was collected from the heart for preparation of serum that was stored at −80C until it was analyzed for total GLP-1 concentration by ELISA assay using a GLP-1 enzyme immunoassay kit.

LPAR3 [1] = target: T1, LPAR3 (Homo sapiens, UniProt Q9UBY5); settings: cited from earlier work
T1 sequence (Q9UBY5 1-353): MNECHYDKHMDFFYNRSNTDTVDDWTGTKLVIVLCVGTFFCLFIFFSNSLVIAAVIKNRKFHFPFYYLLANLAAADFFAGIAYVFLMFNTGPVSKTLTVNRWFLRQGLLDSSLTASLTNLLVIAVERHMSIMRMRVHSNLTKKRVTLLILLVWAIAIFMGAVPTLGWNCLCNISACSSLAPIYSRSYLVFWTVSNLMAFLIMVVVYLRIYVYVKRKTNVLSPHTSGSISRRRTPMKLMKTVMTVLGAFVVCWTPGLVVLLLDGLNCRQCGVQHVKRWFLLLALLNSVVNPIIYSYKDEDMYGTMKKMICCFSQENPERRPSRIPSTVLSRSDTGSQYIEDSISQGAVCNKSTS

LPAR2 [2] = target: T2, LPAR2 (Homo sapiens, UniProt Q9HBW0); settings: cited from earlier work
T2 sequence (Q9HBW0 whole entry, species assumed): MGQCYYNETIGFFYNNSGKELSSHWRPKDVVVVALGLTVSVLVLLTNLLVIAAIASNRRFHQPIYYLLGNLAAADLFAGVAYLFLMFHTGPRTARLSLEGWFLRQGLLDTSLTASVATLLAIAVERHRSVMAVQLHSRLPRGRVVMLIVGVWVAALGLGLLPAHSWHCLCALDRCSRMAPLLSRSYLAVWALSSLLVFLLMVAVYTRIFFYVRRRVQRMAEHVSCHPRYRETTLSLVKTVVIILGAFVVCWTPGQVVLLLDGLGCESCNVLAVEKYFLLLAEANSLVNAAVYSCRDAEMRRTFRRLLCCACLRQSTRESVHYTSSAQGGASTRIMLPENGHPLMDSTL

DPP4 [3] = assay: DPP4 activity in GLUTag cells (fluorometric kit ab204722); format: cell-based, mouse; settings: for effect of 18:1-LPA combined with LPAR antagonist on DPP4 activity in GLUTag cells: 2.5 uM 18:1-LPA 30 minutes, then 10 uM antagonist 2 hours; for effect of LPAR antagonist alone on DPP4 activity in GLUTag cells: 10 uM antagonist, 2 hours
Experimental: Briefly, GLUTag cells were grown to produce the recommended quantity needed for the assay according to the manufacturer's protocol (ab204722 Dipeptidyl peptidase IV Activity Assay Kit (Fluorometric)), and then the wells were treated in media containing charcoal-stripped FBS (10%), with either nothing (no treatment control), or vehicle control (0.05% DMSO), or 2.5 uM 18:1-LPA for 30 minutes, and then the inhibitors (as indicated in the graph of FIG. 17) were added to the vehicle wells and the 2.5 uM 18:1-LPA wells at 10 uM concentrations, as indicated on the graph (FIG. 17), for an additional 2 hours. Cells were then harvested according to the manufacturer's protocol, and lysed using reagents from the kit. Charcoal-stripped FBS was used to remove lipids, including LPA, from serum. Experiments were also carried out wherein the FBS was not stripped with charcoal, and the results were not different.
According to the manufacturer, dipeptidyl peptidase IV (DPP4) Activity Assay Kit (Fluorometric) (ab204722) is an assay where DPP4 cleaves a substrate to release a quenched fluorescent group, AMC (7-Amino-4-Methyl Coumarin), which can be easily detected at Ex/Em=360/460 nm. This assay is rapid, simple, sensitive, and reliable, as well as, suitable for high throughput activity screening of DPP4. This kit detects DPP4 activity as low as 3 ρU per well.

DPP4 [4] = assay: DPP4 activity in serum of C57BI/6J mice; format: in vivo; settings: for effect of antagonist on DPP4 activity in mouse serum: 30 mg/kg by gavage; for effect of 18:1-LPA combined with antagonist on DPP4 activity in mouse serum: antagonist 30 mg/kg by gavage then 50 mg/kg 18:1-LPA
LPAR1 [5] = target: T3, LPAR1 (Homo sapiens, UniProt Q92633); design: expressed in transfected cells; host or cells: CHO cells; settings: cited from earlier work; for IC50: LPA-induced calcium response, CHO cells with LPAR1
Target sequence in this assay (Q92633 whole entry): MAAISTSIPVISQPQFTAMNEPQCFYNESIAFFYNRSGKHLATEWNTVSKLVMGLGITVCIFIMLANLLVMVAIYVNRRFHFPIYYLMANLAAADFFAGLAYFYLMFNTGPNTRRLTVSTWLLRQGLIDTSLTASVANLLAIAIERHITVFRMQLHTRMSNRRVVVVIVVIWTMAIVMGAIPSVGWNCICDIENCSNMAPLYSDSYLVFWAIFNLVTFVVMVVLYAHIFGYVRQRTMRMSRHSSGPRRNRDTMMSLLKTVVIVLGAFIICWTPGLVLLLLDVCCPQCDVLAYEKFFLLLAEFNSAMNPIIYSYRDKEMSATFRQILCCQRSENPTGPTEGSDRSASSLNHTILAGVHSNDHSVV

LPAR1 [6] = target: T3, LPAR1; settings: in cells; read-out: IC50 in cells for LPAR1; cited from earlier work
Target sequence in this assay (Q92633 whole entry, species assumed): as the sequence (Q92633 whole entry) above

GLUTag cells = assay: GLP-1 secretion from cultured GLUTag cells treated with LPA and/or LPAR antagonist; format: cell-based, mouse; settings: for decrease in GLP-1 secretion / level caused by LPA (fraction): 2.5 μM LPA, 2-2.5 h
Experimental: We have grown GLUTag cells in culture to test effects of various LPA species and the LPAR 1/2/3 inhibitor Ki-16425. GLUTag cells are a well characterized L-cell line derived from a mouse intestinal tumour, which have been widely used to study the regulation of GLP-1. Briefly, GLUTag cells were grown until 80-90% confluent. Complete medium, containing fetal bovine serum, was replaced with medium containing charcoal[…] dextran treated serum, which removes lipids and hormones that could interfere with testing. […] This indicates a direct inhibitory effect of LPA at physiologically relevant levels on GLP-1 secretion by L-cells, and the ability of a commercially available LPAR antagonist to prevent this.
Experimental Protocol. Briefly, GLUTag cells were grown until 70-80% confluent. Complete medium (low glucose DMEM), containing fetal bovine serum, was replaced with medium containing charcoal-dextran treated serum, which removes lipids and hormones that could interfere with testing. Cells were then treated with medium containing either DMSO as vehicle control (0.1% v/v), 2.5 μM LPA, 10 μM LPAR antagonist, or a combination of the LPA species and inhibitors. For cells treated with both LPA plus LPAR inhibitor: cells were pre-treated with LPA for 30 minutes and then 10 uM LPAR inhibitor was added to the respective wells for a further 2 hours. For cells treated with LPA only, or vehicle only, the total treatment time was 2.5 hours. For cells treated with antagonist only, the treatment time was 2 hours.

DPP4 [7] = assay: DPP4 activity in serum of C57BI/6J mice; format: in vivo; settings: 50 mg/kg 18:1-LPA i.p., serum 30 minutes later
Experimental: Mice were injected with 5 mg/kg Ki16425 or control (10% DMSO in isotonic saline), then injected 10 mins later with 50 mg/kg 1-18:1-LPA or saline (vehicle control), then euthanized 30 minutes later for serum collection and analysis.
as §1, with “(for” for “(for BMS986020,”, “00842” for “00842, AM966, AM095,”, “AM966),” for “H2L51863030),”, “Ki-16425)” for “Ki-16425, and LPA2-antagonistl)”, “18:1-LPA.” for “LPA.”

LPAR3 [8] = target: T1, LPAR3; settings: cited from earlier work; remark: listed apart in the source
LPAR5 = target: T4, LPAR5 (Homo sapiens, UniProt Q9H1C0); settings: cited from earlier work
T4 construct: host or cells: CHO cells
T4 sequence (Q9H1C0 whole entry, species assumed): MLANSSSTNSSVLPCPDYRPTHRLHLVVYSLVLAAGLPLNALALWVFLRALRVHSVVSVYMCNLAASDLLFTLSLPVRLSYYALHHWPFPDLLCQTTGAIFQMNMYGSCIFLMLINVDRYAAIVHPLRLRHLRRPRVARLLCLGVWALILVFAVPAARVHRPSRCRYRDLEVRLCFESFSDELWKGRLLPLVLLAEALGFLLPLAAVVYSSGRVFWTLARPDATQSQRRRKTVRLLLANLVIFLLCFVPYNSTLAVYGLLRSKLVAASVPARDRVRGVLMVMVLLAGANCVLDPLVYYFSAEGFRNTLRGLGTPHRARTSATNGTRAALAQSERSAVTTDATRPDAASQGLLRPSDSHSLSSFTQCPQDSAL

LPAR4 = target: T5, LPAR4 (Homo sapiens, UniProt Q99677); settings: cited from earlier work
T5 construct: host or cells: CHO cells
T5 sequence (Q99677 whole entry, species assumed): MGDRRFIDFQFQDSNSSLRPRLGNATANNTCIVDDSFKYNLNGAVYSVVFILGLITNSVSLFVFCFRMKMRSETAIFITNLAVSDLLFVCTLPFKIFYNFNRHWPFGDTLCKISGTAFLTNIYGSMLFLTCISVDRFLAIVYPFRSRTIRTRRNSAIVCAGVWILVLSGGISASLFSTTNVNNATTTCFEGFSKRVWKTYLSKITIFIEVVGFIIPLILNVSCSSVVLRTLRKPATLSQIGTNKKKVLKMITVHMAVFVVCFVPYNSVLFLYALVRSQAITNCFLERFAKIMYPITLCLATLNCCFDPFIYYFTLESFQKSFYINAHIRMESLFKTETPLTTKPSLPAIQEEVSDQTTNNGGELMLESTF

LPAR2 [9] = target: T2, LPAR2; settings: cited from earlier work; remark: listed apart in the source
insulin secretion = settings: prior study, Rancoule et al. 2013; cited from earlier work
[10] = listed as 1-oleoyl-2-hydroxy-LPA

COc1ccc(C(=O)NC2(C(=O)O)Cc3ccccc3C2)cc1OCCc1cccc(C)c1 [SAR100842]
rescue of the fall in blood GLP-1 levels caused by LPA (GLP-1): completely abrogated; also recorded: Complete rescues; also recorded: restored to normal levels
blood GLP-1 with antagonist alone versus vehicles (GLP-1): indistinguishable from mice treated only with the vehicles
concentration up to which no activity with LPAR3 (LPAR3 [1]; no activity up to): > 10,000 nM
concentration up to which no reported activity on LPAR3 (LPAR3 [1]; no reported activity up to): > 10 µM
concentration up to which no activity with LPAR2 (LPAR2 [2]; no activity up to): > 10,000 nM
concentration up to which no reported activity on LPAR2 (LPAR2 [2]; no reported activity up to): > 10 µM
effect of 18:1-LPA combined with LPAR antagonist on DPP4 activity in GLUTag cells (DPP4 [3]): did not significantly affect
effect of LPAR antagonist alone on DPP4 activity in GLUTag cells (DPP4 [3]): did not significantly affect
effect of antagonist on DPP4 activity in mouse serum (DPP4 [4]): did not significantly affect; also recorded: lack of effect; also recorded: not significantly affected
effect of 18:1-LPA combined with antagonist on DPP4 activity in mouse serum (DPP4 [4]): did not affect
IC50 (LPAR1 [5]): 59 to 262 nM
IC50 (LPAR1 [6]): ~100 nM

CCCCCCCC/C=C\CCCCCCCC(=O)OC[C@@H](O)COP(=O)(O)O [18:1-LPA, 1-oleoyl-2-hydroxy-LPA]
decrease in plasma GLP-1 levels after LPA injection (GLP-1): ~60%
decrease in plasma GLP-1 levels after LPA injection (GLP-1; listed as 1-18:1-LPA): over 60%
effect of LPA on circulating GLP-1 levels (words) (GLP-1): decreased
effect of LPA on circulating GLP-1 levels (words) (GLP-1; [10]): decreases circulating GLP-1 levels
effect of LPA on DPP4 activity in GLUTag cells (DPP4 [3]; 2.5 uM 18:1-LPA): did not significantly reduce
decrease in GLP-1 secretion / level caused by LPA (fraction) (GLUTag cells): > 2/3
decrease in GLP-1 secretion / level caused by LPA (fraction) (GLUTag cells; [10]): over 2/3
effect of LPA on DPP4 activity in mouse serum (DPP4 [7]): did not affect

Cc1noc(-c2ccc(-c3ccc(CC(=O)O)cc3)cc2)c1NC(=O)O[C@H](C)c1ccccc1Cl [AM966]
rescue of the fall in blood GLP-1 levels caused by LPA (GLP-1): completely abrogated; also recorded: Complete rescues; also recorded: restored to normal levels
blood GLP-1 with antagonist alone versus vehicles (GLP-1): indistinguishable from mice treated only with the vehicles
IC50 (LPAR3 [8]; calcium assay, CHO cells, read-out: IC50, LPAR3): 1600 nM
IC50 (LPAR3 [8]; read-out: IC50, LPAR3, calcium release in CHO cells): 1600 nM
level at which LPAR3 is antagonized (LPAR3 [1]): low micromolar levels
IC50 (LPAR5; calcium assay, CHO cells, read-out: IC50, LPAR5): 8600 nM
IC50 (LPAR5; read-out: IC50, LPAR5, calcium release in CHO cells): 8600 nM
effect of 18:1-LPA combined with LPAR antagonist on DPP4 activity in GLUTag cells (DPP4 [3]): did not significantly affect
effect of LPAR antagonist alone on DPP4 activity in GLUTag cells (DPP4 [3]): did not significantly affect
effect of antagonist on DPP4 activity in mouse serum (DPP4 [4]): did not significantly affect; also recorded: lack of effect; also recorded: not significantly affected
effect of 18:1-LPA combined with antagonist on DPP4 activity in mouse serum (DPP4 [4]): did not affect
IC50 (LPAR1 [5]): 17 nM
fold lower affinity for LPAR2, LPAR3 (than LPAR1) (LPAR1 [5]; selectivity): ~10 fold
IC50 (LPAR4; calcium assay, CHO cells, read-out: IC50, LPAR4): 7700 nM
IC50 (LPAR4; read-out: IC50, LPAR4, calcium release in CHO cells): 7700 nM
IC50 (LPAR2 [9]; calcium assay, CHO cells, read-out: IC50, LPAR2): 1700 nM
IC50 (LPAR2 [9]; read-out: IC50, LPAR2, calcium release in CHO cells): 1700 nM
effect of LPAR antagonist alone on GLP-1 levels (GLUTag cells; 10 μM antagonist alone, 2 h): no significant effect
rescue of LPA-inhibited GLP-1 secretion by LPAR antagonist (GLUTag cells; 10 μM antagonist plus 2.5 μM LPA): complete rescue

lysophosphatidic acid [LPA]
effect of LPA on circulating GLP-1 levels (words) (GLP-1): suppressed
fall in serum GLP-1 levels after LPA injection (GLP-1; vehicle (10% DMSO)-treated mice, 50 mg/kg 18:1-LPA i.p., 30 min, serum (Example 6)): > 50%
insulin secretion in mice injected with LPA (insulin secretion): impaired
effect of LPA on DPP4 activity in mouse serum (DPP4 [7]): lack of effect; also recorded: not significantly affected
